Source: PubChem BioAssay AID252 (DTP/NCI, 2004)
Values joined by “and” are separate entries in the source; they are usually repeats but may differ in a detail not shown here. Equal values may be shown once. Toxic doses and inconclusive results are not listed. *1 amine or outer side, *2 acyl side, *3 side chain or, on linkers, in order; H or OH if unused. Where a SMILES comes first, the peptide text is derived from it. Bridges are numbered along the chain shown (N, C = ends). Roman numbers before positions name the chains, in order. [ ]: non-standard residue; d: D form. Actinocin(9to1) = Cc1c2oc3c(C)ccc(C(=O)[*:1])c3nc-2c(C(=O)[*:2])c(N)c1=O; aThr = C[C@H](O)[C@H](N)C(=O)O; NMeV = CN[C@H](C(=O)O)C(C)C; Sar = CNCC(=O)O

Tested on: BDF1 mice, intracerebral L1210 leukemia, survival T/C
Assay: NCI In Vivo Anticancer Drug Screen. Data for tumor model L1210 Leukemia (intracerebral) in B6D2F1 (BDF1) mice
Conditions: higher = longer survival
In short: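 Mice carrying transplanted tumour were dosed with compound; survival was recorded and expressed as treated-group value (T) divided by vehicle-control value (C).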

[1] = endpoint: mean survival time, dose: 12.0 mg/kg/injection, schedule: Q01DX001 (ip), vehicle: carboxymethylcellulose (CMC)
[2] = endpoint: mean survival time, dose: 18.0 mg/kg/injection, schedule: Q01DX001 (ip), vehicle: carboxymethylcellulose (CMC)

Question: What does the source list for Cc1c2oc3c(C)ccc(C(=O)N[C@@H]4C(=O)N[C@H](C(C)C)C(=O)N5CCC[C@H]5C(=O)N(C)CC(=O)N(C)[C@@H](C(C)C)C(=O)O[C@H]4C)c3nc-2c(C(=O)N[C@@H]2C(=O)N[C@H](C(C)C)C(=O)N3CCC[C@H]3C(=O)N(C)CC(=O)N(C)[C@@H](C(C)C)C(=O)O[C@H]2C)c(N)c1=O (I: [aThr][dV]P[Sar][NMeV] / II: [aThr][dV]P[Sar][NMeV]; ester I:1-I:C, II:1-II:C; linker I:N-II:N via Actinocin(9to1))?
Answer: T/C (endpoint: mean survival time, dose: 0.11 mg/kg/injection, schedule: Q01DX001 (ip), vehicle: saline): 97 % of control; T/C (endpoint: mean survival time, dose: 0.18 mg/kg/injection, schedule: Q01DX001 (ip), vehicle: saline): 102 % of control; T/C (endpoint: mean survival time, dose: 0.27 mg/kg/injection, schedule: Q01DX001 (ip), vehicle: saline): 102 % of control; T/C (endpoint: mean survival time, dose: 12.0 micrograms/kg/injection, schedule: Q01DX Z (ip), vehicle: saline): 101 % of control; T/C (endpoint: mean survival time, dose: 25.0 micrograms/kg/injection, schedule: Q01DX Z (ip), vehicle: saline): 104 % of control; T/C (endpoint: mean survival time, dose: 50.0 micrograms/kg/injection, schedule: Q01DX Z (ip), vehicle: saline): 102 % of control; T/C (endpoint: mean survival time, dose: 100.0 micrograms/kg/injection, schedule: Q01DX Z (ip), vehicle: saline): 101 % of control

Question: COc1cc(NS(C)(=O)=O)ccc1Nc1c2cccc(C)c2nc2c(C)cccc12 was tested. Which T/C (endpoint: mean survival time, dose: 6.25 mg/kg/injection, schedule: Q01DX009 (ip), vehicle: water) did it give?
Answer: 111 % of control

Question: And the T/C (endpoint: mean survival time, dose: 6.25 mg/kg/injection, schedule: Q01DX009 (sc), vehicle: water)?
Answer: 98 % of control

Question: What about the T/C (endpoint: mean survival time, dose: 12.5 mg/kg/injection, schedule: Q01DX009 (sc), vehicle: water) of the same molecule?
Answer: 101 % of control

Question: What about the T/C (endpoint: mean survival time, dose: 25.0 mg/kg/injection, schedule: Q01DX001 (ip), vehicle: saline) of the same molecule?
Answer: 101 % of control

Question: And the T/C (endpoint: mean survival time, dose: 25.0 mg/kg/injection, schedule: Q01DX009 (ip), vehicle: water)?
Answer: 114 % of control

Question: And the T/C (endpoint: mean survival time, dose: 25.0 mg/kg/injection, schedule: Q01DX009 (sc), vehicle: water)?
Answer: 103 % of control

Question: What about the T/C (endpoint: mean survival time, dose: 50.0 mg/kg/injection, schedule: Q01DX001 (ip), vehicle: saline) of the same molecule?
Answer: 107 % of control

Question: And the T/C (endpoint: mean survival time, dose: 50.0 mg/kg/injection, schedule: Q01DX009 (sc), vehicle: water)?
Answer: 104 % of control

Question: And the T/C (endpoint: mean survival time, dose: 100.0 mg/kg/injection, schedule: Q01DX001 (ip), vehicle: saline)?
Answer: 110 % of control

Question: And the T/C (endpoint: mean survival time, dose: 200.0 mg/kg/injection, schedule: Q01DX001 (ip), vehicle: saline)?
Answer: 112 % of control

Question: Which T/C (endpoint: mean survival time, dose: 2.5 mg/kg/injection, schedule: Q01DX001 (ip), vehicle: carboxymethylcellulose (CMC)) does the source give for O=NN(CCCl)C(=O)Nc1ccc(C(=O)O)cc1 here?
Answer: 101 % of control

Question: What about the T/C (endpoint: mean survival time, dose: 3.7 mg/kg/injection, schedule: Q01DX001 (ip), vehicle: carboxymethylcellulose (CMC)) of the same molecule?
Answer: 97 % of control

Question: And the T/C (endpoint: mean survival time, dose: 5.0 mg/kg/injection, schedule: Q01DX001 (ip), vehicle: carboxymethylcellulose (CMC))?
Answer: 106 % of control

Question: And the T/C (endpoint: mean survival time, dose: 6.0 mg/kg/injection, schedule: Q01DX001 (ip), vehicle: carboxymethylcellulose (CMC))?
Answer: 100 % of control

Question: What about the T/C (endpoint: mean survival time, dose: 7.5 mg/kg/injection, schedule: Q01DX001 (ip), vehicle: carboxymethylcellulose (CMC)) of the same molecule?
Answer: 101 % of control

Question: And the T/C (endpoint: mean survival time, dose: 8.0 mg/kg/injection, schedule: Q01DX001 (ip), vehicle: carboxymethylcellulose (CMC))?
Answer: 106 % of control

Question: And the T/C [1]?
Answer: 108 % of control

Question: What about the T/C [2] of the same molecule?
Answer: 104 % of control

Question: How did the T/C (endpoint: mean survival time, dose: 1.0 mg/kg/injection, schedule: Q01DX009 (ip), vehicle: saline) turn out when CCCC(=O)NC1=C(N2CC2)C(=O)C(NC(=O)CCC)=C(N2CC2)C1=O was run?
Answer: 105 % of control

Question: What about the T/C (endpoint: mean survival time, dose: 4.0 mg/kg/injection, schedule: Q01DX009 (ip), vehicle: saline) of the same molecule?
Answer: 152 % of control

Question: And the T/C (endpoint: mean survival time, dose: 8.0 mg/kg/injection, schedule: Q01DX009 (ip), vehicle: saline)?
Answer: 89 % of control

Question: Which T/C (endpoint: mean survival time, dose: 20.0 mg/kg/injection, schedule: Q01DX001 (ip), vehicle: other) does the source give for CC1CCC(NC(=O)N(CCF)N=O)CC1 (stereo not given) here?
Answer: 117 % of control

Question: And the T/C (endpoint: mean survival time, dose: 44.0 mg/kg/injection, schedule: Q01DX001 (ip), vehicle: other)?
Answer: 212 % of control

Question: What about the T/C (endpoint: mean survival time, dose: 66.0 mg/kg/injection, schedule: Q01DX001 (ip), vehicle: other) of the same molecule?
Answer: 341 % of control

Question: What does the source list for CS(C)=O?
Answer: T/C (endpoint: mean survival time, dose: 0.5 mg/kg/injection, schedule: Q#C X009 (adlb), vehicle: water): 102 % of control; T/C (endpoint: mean survival time, dose: 1.0 mg/kg/injection, schedule: Q#C X009 (adlb), vehicle: water): 102 % of control; T/C (endpoint: mean survival time, dose: 2.0 mg/kg/injection, schedule: Q#C X009 (adlb), vehicle: water): 101 % of control; T/C (endpoint: mean survival time, dose: 4.0 mg/kg/injection, schedule: Q#C X009 (adlb), vehicle: water): 101 % of control; T/C (endpoint: mean survival time, dose: 8.0 mg/kg/injection, schedule: Q#C X009 (adlb), vehicle: water): 98 % of control; T/C (endpoint: mean survival time, dose: 10.0 mg/kg/injection, schedule: Q01DX001 (ip), vehicle: DMSO): 110 % of control; T/C (endpoint: mean survival time, dose: 25.0 mg/kg/injection, schedule: Q01DX001 (ip), vehicle: DMSO): 101 % of control; T/C (endpoint: mean survival time, dose: 35.0 mg/kg/injection, schedule: Q01DX001 (ip), vehicle: DMSO): 101 % of control; T/C (endpoint: mean survival time, dose: 50.0 mg/kg/injection, schedule: Q01DX001 (ip), vehicle: DMSO): 101 % of control; T/C (endpoint: mean survival time, dose: 0.5 % drug in feed or water or air, schedule: Q#C X009 (oral), vehicle: other): 102 % of control; T/C (endpoint: mean survival time, dose: 1.0 % drug in feed or water or air, schedule: Q#C X009 (oral), vehicle: other): 102 % of control; T/C (endpoint: mean survival time, dose: 1.0 grams/kg/injection, schedule: Q01DX001 (ip), vehicle: Klucel (hydroxypropylcellulose) (HPC)): 110 % of control; T/C (endpoint: mean survival time, dose: 2.0 % drug in feed or water or air, schedule: Q#C X009 (oral), vehicle: other): 101 % of control; T/C (endpoint: mean survival time, dose: 2.1 grams/kg/injection, schedule: Q01DX001 (ip), vehicle: Klucel (hydroxypropylcellulose) (HPC)): 101 % of control; T/C (endpoint: mean survival time, dose: 4.0 % drug in feed or water or air, schedule: Q#C X009 (oral), vehicle: other): 101 % of control; T/C (endpoint: mean survival time, dose: 8.0 % drug in feed or water or air, schedule: Q#C X009 (oral), vehicle: other): 98 % of control; T/C (endpoint: median survival time, dose: 1.0 mg/kg/injection, schedule: Q#C X009 (oral), vehicle: water): 103 % of control and 118 % of control; T/C (endpoint: median survival time, dose: 2.0 mg/kg/injection, schedule: Q#C X009 (oral), vehicle: water): 101 % of control (2×) and 105 % of control; T/C (endpoint: median survival time, dose: 4.0 mg/kg/injection, schedule: Q#C X009 (oral), vehicle: water): 103 % of control and 107 % of control and 98 % of control; T/C (endpoint: median survival time, dose: 8.0 mg/kg/injection, schedule: Q#C X009 (oral), vehicle: water): 101 % of control and 83 % of control and 97 % of control

Question: O=NN(CCCl)C(=O)Nc1cccc([N+](=O)[O-])c1 was tested. Which T/C [1] did it give?
Answer: 102 % of control

Question: What about the T/C [2] of the same molecule?
Answer: 118 % of control

Question: What about the T/C (endpoint: mean survival time, dose: 26.0 mg/kg/injection, schedule: Q01DX001 (ip), vehicle: carboxymethylcellulose (CMC)) of the same molecule?
Answer: 117 % of control

Question: What about the T/C (endpoint: mean survival time, dose: 40.0 mg/kg/injection, schedule: Q01DX001 (ip), vehicle: carboxymethylcellulose (CMC)) of the same molecule?
Answer: 115 % of control

Question: Which results are given for N#CCCN1c2ccccc2Sc2ccccc21?
Answer: T/C (endpoint: mean survival time, dose: 12.5 mg/kg/injection, schedule: Q04DX003 (ip), vehicle: Klucel (hydroxypropylcellulose) (HPC)): 100 % of control; T/C (endpoint: mean survival time, dose: 25.0 mg/kg/injection, schedule: Q04DX003 (ip), vehicle: Klucel (hydroxypropylcellulose) (HPC)): 96 % of control; T/C (endpoint: mean survival time, dose: 50.0 mg/kg/injection, schedule: Q04DX003 (ip), vehicle: Klucel (hydroxypropylcellulose) (HPC)): 109 % of control; T/C (endpoint: mean survival time, dose: 100.0 mg/kg/injection, schedule: Q04DX003 (ip), vehicle: Klucel (hydroxypropylcellulose) (HPC)): 104 % of control; T/C (endpoint: mean survival time, dose: 200.0 mg/kg/injection, schedule: Q04DX003 (ip), vehicle: Klucel (hydroxypropylcellulose) (HPC)): 98 % of control
